System: Hepatocyte
Details: rat, hepatocytes, 10 min, 5 µM

CLb: 52%
SMILES: O=C(O)C[C@H](O)C[C@H](O)/C=C/c1c(C2CC2)nc2ccccc2c1-c1ccc(F)cc1 [PITAVASTATIN]
